From the supplement of paper PMC10307832

Tests used:
Assay in all cases: relative viability (nuclei count vs DMSO), 5 days (fraction); higher = more cells survive
[1] = compound: CNC(=O)c1ccccc1Sc1ccc2c(/C=C/c3ccccn3)n[nH]c2c1 [Axitinib] + Cc1nc(NC(=O)N2CCC[C@H]2C(N)=O)sc1-c1ccnc(C(C)(C)C(F)(F)F)c1 [Alpelisib] (partner 2 µM)
Procedure, shortened: (§1)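 Lung cancer cell lines in 1536-well plates got either a single drug or a fixed anchor-drug dose together with five library-drug doses (not always all listed) in √10 steps, by pin tool, on the day after seeding. Nuclei were counted after 5 days, and relative viability is the treated-to-vehicle ratio of nuclei counts. Values are medians of duplicate plates.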

[2] = compound: CC1=CC=C(C=C1)C(=O)CN2C3=C(CCCC3)SC2=N [Pifithrin_alpha] + CS(=O)(=O)N1CCN(Cc2cc3nc(-c4cccc5[nH]ncc45)nc(N4CCOCC4)c3s2)CC1 [Pictilisib] (partner 1 µM)
Procedure, shortened: as §1

[3] = compound: Nc1nc(Nc2ccc3c(c2)CC[C@@H](N2CCCC2)CC3)nn1-c1cc2c(nn1)-c1ccccc1CCC2 [Bemcentinib] + N=C(N)NC(=N)NCCc1ccccc1 [Phenformin] (partner 250 µM)
Procedure, shortened: as §1

[4] = compound: CC1=CC=C(C=C1)C(=O)CN2C3=C(CCCC3)SC2=N [Pifithrin_alpha] + CC(=O)Nc1cccc(-n2c(=O)n(C3CC3)c(=O)c3c(Nc4ccc(I)cc4F)n(C)c(=O)c(C)c32)c1 [Trametinib] (partner 0.02 µM)
Procedure, shortened: as §1

Row | Cell Line | relative viability ([1]; first compound 0.005 µM) | relative viability ([1]; first compound 0.01581 µM) | relative viability ([1]; first compound 0.05 µM) | relative viability ([1]; first compound 0.1581 µM) | relative viability ([1]; first compound 0.5 µM) | relative viability ([2]; first compound 1 µM) | relative viability ([2]; first compound 3.162 µM) | relative viability ([2]; first compound 10 µM) | relative viability ([2]; first compound 31.62 µM) | relative viability ([2]; first compound 100 µM) | relative viability ([3]; first compound 0.04 µM) | relative viability ([3]; first compound 0.1265 µM) | relative viability ([3]; first compound 0.4 µM) | relative viability ([3]; first compound 1.265 µM) | relative viability ([3]; first compound 4 µM) | relative viability ([4]; first compound 1 µM) | relative viability ([4]; first compound 3.162 µM) | relative viability ([4]; first compound 10 µM) | relative viability ([4]; first compound 31.62 µM) | relative viability ([4]; first compound 100 µM)
1 | NCI-H23 | 0.83 | 0.862 | 0.554 | 0.861 | 0.796 | 0.491 | 0.459 | 0.491 | 0.343 | 0.365 | 0.813 | 0.822 | 0.803 | 0.659 | 0.755 | 0.288 | 0.314 | 0.447 | 0.353 | 0.358
2 | NCI-H322M | 0.834 | 0.688 | 0.729 | 0.944 | 0.893 | 0.54 | 0.45 | 0.503 | 0.44 | 0.428 | 0.726 | 0.804 | 0.739 | 0.862 | 0.833 | 0.436 | 0.307 | 0.514 | 0.509 | 0.539
3 | NCI-H358 | 1.03 | 0.898 | 0.806 | 0.738 | 1.05 | 0.276 | 0.346 | 0.368 | 0.333 | 0.317 | 0.321 | 0.348 | 0.325 | 0.355 | 0.39 | 0.138 | 0.124 | 0.129 | 0.12 | 0.121
4 | NCI-H441 | 0.79 | 0.72 | 0.965 | 0.561 | 0.852 | 0.552 | 0.582 | 0.624 | 0.436 | 0.438 | 0.831 | 0.919 | 1.04 | 1.04 | 0.948 | 0.421 | 0.474 | 0.409 | – | 0.333
5 | NCI-H460 | 0.569 | 0.571 | 0.54 | 0.549 | 0.821 | 0.317 | 0.353 | 0.31 | – | 0.371 | 0.552 | 0.7 | 0.522 | 0.607 | 0.568 | 0.0943 | 0.075 | 0.155 | 0.0707 | 0.103
6 | NCI-H520 | 0.923 | 0.951 | 0.91 | 0.784 | 0.899 | 0.27 | 0.311 | 0.301 | 0.269 | 0.285 | 0.573 | 0.606 | 0.608 | 0.733 | 0.62 | 0.777 | 0.652 | 0.785 | 0.535 | 0.741
7 | NCI-H596 | 0.503 | 0.624 | 0.531 | 0.599 | 0.553 | 0.354 | 0.349 | 0.379 | 0.342 | 0.392 | 0.698 | 0.733 | 0.783 | 0.713 | 0.772 | 0.762 | 0.675 | 0.76 | 0.587 | 0.675
8 | NCI-H647 | 1.27 | 1.24 | 1.28 | 1.11 | 1.6 | – | 0.413 | 0.37 | 0.226 | 0.341 | 0.631 | 0.488 | 0.674 | 0.62 | 0.544 | 0.391 | 0.335 | 0.332 | 0.344 | 0.496
9 | NCI-H661 | 0.613 | 0.509 | 1.02 | 0.862 | 0.511 | 0.322 | 0.391 | 0.359 | 0.472 | 0.333 | 0.268 | 0.263 | 0.28 | 0.271 | 0.286 | 0.561 | 0.603 | 0.555 | 0.462 | 0.503
10 | NCI-H727 | 0.612 | 0.524 | 1.43 | 0.538 | 0.783 | 0.347 | 0.466 | 0.369 | 0.316 | 0.227 | 0.626 | 0.709 | 0.493 | 0.363 | 0.671 | 0.374 | 0.403 | 0.388 | 0.409 | 0.361
11 | NCI-H838 | 1.12 | 1 | 1.05 | 1 | 1.18 | 0.343 | 0.357 | 0.399 | 0.293 | 0.314 | 0.544 | 0.493 | 0.561 | 0.659 | 0.566 | 0.458 | 0.425 | 0.452 | 0.391 | 0.391
12 | NCI-H1355 | 0.891 | 0.825 | 0.794 | 0.897 | 0.909 | 0.195 | 0.363 | 0.311 | 0.257 | 0.337 | 0.442 | 0.444 | 0.483 | 0.42 | 0.484 | 0.39 | 0.362 | 0.298 | 0.31 | 0.282
13 | NCI-H1395 | 1.22 | 1.02 | 1.21 | 1.07 | 1.18 | – | 0.553 | 0.562 | 0.465 | 0.484 | 0.406 | 0.43 | 0.434 | 0.451 | 0.446 | – | 1.03 | 1.11 | – | 1.19
14 | NCI-H1437 | 1.01 | 1.01 | 1.01 | 0.929 | 1.06 | 0.371 | 0.406 | 0.44 | 0.249 | 0.222 | 0.305 | 0.33 | 0.375 | 0.3 | 0.296 | 0.532 | 0.491 | 0.355 | 0.336 | 0.264
15 | NCI-H1651 | 1.03 | 0.944 | 0.971 | 0.937 | 1.12 | 0.687 | 0.541 | 0.66 | 0.365 | 0.528 | 0.352 | 0.324 | 0.283 | 0.316 | 0.354 | 0.833 | 0.821 | 0.863 | 0.851 | 0.958
